Assay results reported in US11779548B2, “Arylfluorosulfate compounds and methods” (THE SCRIPPS RESEARCH INSTITUTE, priority 2014, dated 2023).

How the values were obtained:
MCF-7 cells [1] = experiment: Two-dose cell viability assay (CellTiter-Glo); details: MCF-7, 500 nM, 72 h, in situ generated product
Procedure: (§1) The cytotoxicity of fluorosulfation products 1F to 39F and their phenol precursors was assessed in cancer cell lines using a double-dose cell viability test. […] The difference between the cytotoxicity of a fluorosulfation product and that of its phenol precursor reflects the changes in compounds' anti-cancer activity after the SuFEx-based derivatization (FIG. 3, A). […] The corresponding phosphate of combretastatin A4 is a tumor vascular targeting agent, and the water-soluble prodrug of combretastatin A4.
(§2) 6C. Two-Dose Cell Viability Assay to Compare the Cytotoxicities of Fluorosulfation Products (1F to 39F) and Phenol Parents (1 to 39).
(§3) MCF-7 and A549 cancer cells were inoculated into 96-well plates in 100 μL medium at a plating density of 5,000 cells/well. After cell inoculation, the plates were incubated at 37° C. and 5% CO2. After 24 hours, all wells were refreshed with medium containing DMSO (0.2%, as vehicle control), phenols (20 μM or 500 nM) or in situ generated fluorosulfation products (20 μM or 500 nM). Then cancer cells were maintained at 37° C. and 5% CO2 for 72 hours before cell viability (Vcontrol, Vphenol and Vfluorosulfation product) were evaluated by CellTiter-Glo™ Assay following manual of protocol. […] The cytotoxicity difference between a fluorosulfation product and its phenol precursor is quantified as (Vphenol/Vcontrol×100%)−(Vfluorosulfation product/Vcontrol×100%).

A549 cells [2] = experiment: Two-dose cell viability assay (CellTiter-Glo); details: A549, 20 μM and 500 nM, 72 h
Procedure: as §1, §2, §3

SKBR3 cells = experiment: Cancer cell growth inhibition assay; format: cell-based; details: Homo sapiens, SK-BR-3, 72 h, read-out: IC50 SKBR3 Cells
Procedure: (§4) Experimental compounds were dissolved in DMSO at 500-fold of the desired final maximum test concentration. Then it was 10-fold serially diluted to other concentrations in DMSO. All aliquots were frozen prior to use.
(§5) Another same plate of cells was inoculated for the evaluation of time 0. […] And another plate of cancer cells was refreshed with medium containing either DMSO (0.2%, as control) or test compounds (1 or 1F) in seven different concentrations from 20 μM. After incubation for 72 hours, cell viabilities were evaluated by CellTiter-Glo™ assay to obtain Vcontrol and Vtest. The growth inhibition percentage is defined as (Vtest−V0)/(Vcontrol−V0)×100%. IC50 values were obtained from dose-response curves. All tests included 3 repeats.
as §5, with “Then the viabilities of cancer cells for time 0 were evaluated by CellTiter-Glo™ assay to obtain V0. Another” for “And another”, “(25” for “(1”, “25F)” for “1F)”, “7 to 9” for “seven”, “μM (2 μM for MCF-7 cells). Then cells were” for “μM. After”, “hours, before” for “hours,”

HT-29 cells = experiment: Cancer cell growth inhibition assay; format: cell-based
Procedure: as §4, §5
as §5, with “Then the viabilities of cancer cells for time 0 were evaluated by CellTiter-Glo™ assay to obtain V0. Another” for “And another”, “(25” for “(1”, “25F)” for “1F)”, “7 to 9” for “seven”, “μM (2 μM for MCF-7 cells). Then cells were” for “μM. After”, “hours, before” for “hours,”

[3] = tested on: microtubule network in HT-29 cells; experiment: Immunofluorescence microscopy of HT-29 microtubule disruption; format: cell-based; details: HT-29, 24 h, anti-tubulin-FITC, confocal imaging; 25F 1 μM and 0.1 μM
Procedure: To assess the mechanism of fluorosulfate 25F, HT-29 cells were treated with 25F followed by staining with anti-tubulin-FITC antibody. […] In fact, glucuronidation of 25 on the phenol group by uridine 5-diphosphoglucuronosyl transferases (UGTs) has been previously identified as a mechanism of resistance evolved by HT-29 colon cancer cells and hepatocellular cancer cells.
After incubation at 37° C. for 24 hours, cells were treated with media containing DMSO (0.2%), 25 (1 μM, 0.1 μM) or 25F (1 μM, 0.1 μM, 0.01 μM) for 24 hours. Then cells were gently washed in PBS, fixed for 20 min with 4% paraformaldehyde in PBS and permeabilised in 0.5% Triton X-100™ surfactant. Following washes in PBS containing 0.1% Tween™ (PBST) surfactant, cells were blocked in 5% bovine serum albumin diluted in PBST. Then cells were incubated with mouse monoclonal anti-tublin-FITC antibody (DM1A) (1:100 in PBS) for 3 hours. After washing with PBST, cells were incubated with DAPI (1:2000) for 30 min and mounted in PBS for confocal analysis. Images were captured by Nikon™ spinning disk confocal microscopy. All images in each experiment were collected on the same day using identical parameters.

[4] = tested on: A549, MCF-7, SKBR3 and HT-29 cells; experiment: Cancer cell growth inhibition assay, comparison over the cell line panel; format: cell-based; details: 20 μM and 2 μM, dose-response studies
Procedure: as §4, §5
as §5, with “Then the viabilities of cancer cells for time 0 were evaluated by CellTiter-Glo™ assay to obtain V0. Another” for “And another”, “(25” for “(1”, “25F)” for “1F)”, “7 to 9” for “seven”, “μM (2 μM for MCF-7 cells). Then cells were” for “μM. After”, “hours, before” for “hours,”

MCF-7 cells [5] = experiment: Cancer cell growth inhibition assay; format: cell-based; details: Homo sapiens, MCF7, read-out: IC50 MCF-7 Cells
Procedure: as §4, §5
(§6) Cancer cells were inoculated into a 96-well plate in 100 μL medium at a plating density of 3,000 cells/well. […] Then cells were incubated for 6 days with one change of medium containing test compounds on day 3, before cell viabilities were evaluated by CellTiter-Glo™ Assay to obtain Vcontrol and Vtest. […]
(§7) Another same plate of cells was inoculated for the evaluation of time 0. […] Then the viabilities of cancer cells for time 0 were evaluated by CellTiter-Glo™ assay to obtain V0. […] Then cells were incubation for 72 hours, before cell viabilities were evaluated by CellTiter-Glo™ assay to obtain Vcontrol and Vtest. […]

A549 cells [6] = experiment: Cancer cell growth inhibition assay; format: cell-based; details: Homo sapiens, A549, read-out: IC50 A549 Cells
Procedure: as §4, §5, §6, §7

**Q.** With `COc1ccc(/C=C\c2cc(OC)c(OC)c(OC)c2)cc1OS(=O)(=O)F` [25F, (Z)-2-Methoxy-5-(3,4,5-trimethoxystyryl)phenyl sulfurofluoridate] as the compound, how does the “increase of cytotoxicity relative to phenol precursor” value (MCF-7 cells [1]) read?
**A.** 8%

**Q.** And the “cytotoxicity compared with phenol precursor” value (A549 cells [2])?
**A.** significantly stronger

**Q.** And the IC50 (SKBR3 cells)?
**A.** 1.8 nM

**Q.** And the IC50 (HT-29 cells; Homo sapiens, HT-29, 72 h, read-out: IC50 HT-29 Cells)?
**A.** 70 nM

**Q.** What about the “fold lower IC50 (increase in potency) versus compound 25 on HT-29” value (HT-29 cells; drug resistant colon cancer cell line HT-29) of the same compound?
**A.** 70 fold

**Q.** What about the “microtubule structure of treated cells” value [3] of the same compound?
**A.** completely lost microtubule structure

**Q.** And the “activity to inhibit cells at high concentrations compared with parent drug 25” value [4]?
**A.** stronger activities

**Q.** And the IC50 (MCF-7 cells [5])?
**A.** 15.6 nM

**Q.** And the IC50 (A549 cells [6])?
**A.** 113 nM
